Reference: patent US10736908B2, “Antiviral aryl-amide phosphodiamide compounds” (Merck Sharp & Dohme Corp., priority 2016, dated 2020)
Like-named read-outs stand apart in the source and are kept apart here.

System: HIV-1 (H9/IIIB strain)
Experiment: Multiple round HIV-1 infection assay (Viking assay) in MT4-GFP cells
Format: cell-based
Conditions: HIV-1 replication in MT4-GFP cells
Procedure: Assessing Antiviral Potency in a Multiple Round HIV-1 Infection Assay (Viking Assay)
The antiviral activity of the tenofovir prodrugs of the Examples herein was assessed in an assay that measures the rate of replication of HIV in cell culture, termed the Viking assay (VIral KINetics in Green cells) and performed as follows. HIV-1 replication was monitored using MT4-gag-GFP clone D3 (hereafter designated MT4-GFP), which are MT-4 cells modified to harbor a GFP reporter gene, the expression of which is dependent on the HIV-1 expressed proteins tat and rev. Productive infection of an MT4-GFP cell with HIV-1 results in GFP expression approximately 24 h post-infection. MT4-GFP cells were maintained at 37° C./5% CO2/90% relative humidity in RPMI 1640 supplemented with 10% fetal bovine serum, 100 U/ml penicillin/streptomycin, and 400 μg/ml G418 to maintain the reporter gene. For infections, MT4-GFP cells were placed in the same medium lacking G418 and infected overnight with HIV-1 (H9/IIIB strain) virus at an approximate multiplicity of infection of 0.01 in the same incubation conditions. […] Compound plates were prepared by dispensing compounds dissolved in DMSO into wells of 384 well poly-D-lysine-coated plates (0.2 μl/well) using an ECHO acoustic dispenser. Each compound was tested in a 10-point serial 3-fold dilution (typical final concentrations: 8.4 μM-0.42 nM). Controls included no inhibitor (DMSO only) and a combination of three antiviral agents (efavirenz, indinavir, an in-house integrase strand transfer inhibitor at final concentrations of 4 μM each). Cells were added (50 μL/well) to compound plates and the infected cells were maintained at 37° C./5% CO2/90% relative humidity.
Infected cells were quantified at two time points, ˜48 h and ˜72 h post-infection, by counting the number of green cells in each well using an Acumen eX3 scanner. The increase in the number of green cells over ˜24 h period gives the reproductive ratio, R0, which is typically 5-15 and has been shown experimentally to be in logarithmic phase (data not shown). Inhibition of R0 is calculated for each well, and IC50s determined by non-linear 4-parameter curve fitting.

[1] = Human immunodeficiency virus 1, IIIB, 50% NHS (normal human serum), read-out: Viking, IC50 (50% NHS)
[2] = Human immunodeficiency virus 1, IIIB, head prints 100% NHS (normal human serum), read-out: Viking, IC50 (100% NHS)
[3] = 50% NHS (normal human serum), read-out: Viking, IC50 (50% NHS)
[4] = head prints 100% NHS (normal human serum), read-out: Viking, IC50 (100% NHS)

Row | SMILES | IC50 [1] | IC50 [2] | IC50 [3] | IC50 [4]
1 | CC(C)OC(=O)C(C)(C)NP(=O)(CO[C@H](C)Cn1cnc2c(N)ncnc21)NC(=O)c1ccc(Cl)cc1 (mixture of isomers) [Example 1A, isopropyl 2-(((R)—((((R)-1-(6-amino-9H-purin-9-yl)propan-2-yl)oxy)methyl)(4-chlorobenzamido)phosphoryl)amino)-2-methylpropanoate and isopropyl 2-(((S)—((((R)-1-(6-amino-9H-purin-9-yl)propan-2-yl)oxy)methyl)(4-chlorobenzamido)phosphoryl)amino)-2-methylpropanoate] | 286 nM | 82.4 nM | – | –
2 | CCCOC(=O)C(C)(C)NP(=O)(CO[C@H](C)Cn1cnc2c(N)ncnc21)NC(=O)c1ccc(OC)cc1 (single isomer, unassigned) [Example 2A] | 93.2 nM | 32.4 nM | – | –
3 | CCCOC(=O)C(C)(C)NP(=O)(CO[C@H](C)Cn1cnc2c(N)ncnc21)NC(=O)c1ccc(Cl)cc1 (single isomer, unassigned) [Example 4A] | – | – | 57.9 nM | 12 nM
4 | CC(C)COC(=O)C(C)(C)NP(=O)(CO[C@H](C)Cn1cnc2c(N)ncnc21)NC(=O)c1ccc(Cl)cc1 (single isomer, unassigned) [Example 5A] | – | – | 79.8 nM | 12.3 nM
5 | CC(C)COC(=O)C(C)(C)NP(=O)(CO[C@H](C)Cn1cnc2c(N)ncnc21)NC(=O)c1ccc(Cl)cc1 (single isomer, unassigned) [Example 5B] | – | – | 24.4 nM | 1.9 nM
6 | C[C@H](Cn1cnc2c(N)ncnc21)OCP(=O)(NC(=O)c1ccc(Cl)cc1)NC(C)(C)C(=O)OC1CCC1 (single isomer, unassigned) [Example 6A] | – | – | 36.9 nM | 11.1 nM
7 | C[C@H](Cn1cnc2c(N)ncnc21)OCP(=O)(NC(=O)c1ccc(Cl)cc1)NC(C)(C)C(=O)OC1CCCC1 (single isomer, unassigned) [Example 7A] | – | – | 31.7 nM | 8.4 nM
8 | C[C@H](Cn1cnc2c(N)ncnc21)OCP(=O)(NC(=O)c1ccc(Cl)cc1)NC(C)(C)C(=O)OC1CCCC1 (single isomer, unassigned) [Example 7B] | – | – | 13.5 nM | 1.92 nM
9 | CCOCCOC(=O)C(C)(C)NP(=O)(CO[C@H](C)Cn1cnc2c(N)ncnc21)NC(=O)c1ccc(Cl)cc1 (single isomer, unassigned) [Example 8A] | – | 63.9 nM | 133 nM | –
10 | CCOCCOC(=O)C(C)(C)NP(=O)(CO[C@H](C)Cn1cnc2c(N)ncnc21)NC(=O)c1ccc(Cl)cc1 (single isomer, unassigned) [Example 8B] | – | – | 62.2 nM | 41.1 nM
11 | C[C@H](Cn1cnc2c(N)ncnc21)OCP(=O)(NC(=O)c1ccc(Cl)cc1)NC(C)(C)C(=O)OC1CCOCC1 (single isomer, unassigned) [Example 9A] | – | – | 1440 nM | 404 nM
12 | CC(C)OC(=O)C(C)(C)NP(=O)(CO[C@H](C)Cn1cnc2c(N)ncnc21)NC(=O)c1ccc(F)cc1 (single isomer, unassigned) [Example 10A] | – | – | 264 nM | 129 nM
13 | CCCCCOC(=O)C(C)(C)NP(=O)(CO[C@H](C)Cn1cnc2c(N)ncnc21)NC(=O)c1ccc(F)cc1 (single isomer, unassigned) [Example 11B] | – | – | 30.8 nM | 5.7 nM
14 | CCOCCOC(=O)C(C)(C)NP(=O)(CO[C@H](C)Cn1cnc2c(N)ncnc21)NC(=O)c1ccccc1Cl (single isomer, unassigned) [Example 12A] | 90.6 nM | 30.9 nM | – | –
15 | CCOCCOC(=O)C(C)(C)NP(=O)(CO[C@H](C)Cn1cnc2c(N)ncnc21)NC(=O)c1ccccc1Cl (single isomer, unassigned) [Example 12B] | – | – | 83.4 nM | 26.7 nM
16 | CC(C)OC(=O)C(C)(C)NP(=O)(CO[C@H](C)Cn1cnc2c(N)ncnc21)NC(=O)c1ccncn1 (single isomer, unassigned) [Example 13A] | – | – | 2130 nM | 854 nM

Row | SMILES | IC50 [1] | IC50 [2] | IC50 [3] | IC50 [4]
17 | CC(C)OC(=O)C(C)(C)NP(=O)(CO[C@H](C)Cn1cnc2c(N)ncnc21)NC(=O)c1ccncn1 (single isomer, unassigned) [Example 13B] | – | – | 480 nM | 164 nM
18 | CC(C)OC(=O)C(C)(C)NP(=O)(CO[C@H](C)Cn1cnc2c(N)ncnc21)NC(=O)c1cnccn1 (single isomer, unassigned) [Example 14A] | – | – | 1570 nM | 284 nM
19 | CC(C)OC(=O)C(C)(C)NP(=O)(CO[C@H](C)Cn1cnc2c(N)ncnc21)NC(=O)c1cnccn1 (single isomer, unassigned) [Example 14B] | – | – | 314 nM | 112 nM
20 | CCCCCOC(=O)C(C)(C)NP(=O)(CO[C@H](C)Cn1cnc2c(N)ncnc21)NC(=O)c1cccs1 (single isomer, unassigned) [Example 15B] | – | – | 29.8 nM | 8.1 nM
21 | CCCCCOC(=O)C(C)(C)NP(=O)(CO[C@H](C)Cn1cnc2c(N)ncnc21)NC(=O)c1ccccc1OC (single isomer, unassigned) [Example 16A] | 153 nM | 13.3 nM | – | –
22 | CCCCCOC(=O)C(C)(C)NP(=O)(CO[C@H](C)Cn1cnc2c(N)ncnc21)NC(=O)c1ccccc1OC (single isomer, unassigned) [Example 16B] | – | – | 139 nM | 15.5 nM
23 | COc1ccc(C(=O)NP(=O)(CO[C@H](C)Cn2cnc3c(N)ncnc32)NC(C)(C)C(=O)OC(C)C)cc1 (single isomer, unassigned) [Example 17A] | – | – | 54.3 nM | 18.3 nM
24 | COc1ccc(C(=O)NP(=O)(CO[C@H](C)Cn2cnc3c(N)ncnc32)NC(C)(C)C(=O)OC(C)C)cc1 (single isomer, unassigned) [Example 17B] | – | – | 390 nM | 157 nM
25 | CCCCCOC(=O)C(C)(C)NP(=O)(CO[C@H](C)Cn1cnc2c(N)ncnc21)NC(=O)c1ccc(C)cc1 (single isomer, unassigned) [Example 18A] | – | – | 35.4 nM | 9 nM
26 | CCCOC(=O)C(C)(C)NP(=O)(CO[C@H](C)Cn1cnc2c(N)ncnc21)NC(=O)c1ccccc1Cl (single isomer, unassigned) [Example 21B] | 229 nM | 33.6 nM | – | –
27 | CCOC(=O)C(C)(C)NP(=O)(CO[C@H](C)Cn1cnc2c(N)ncnc21)NC(=O)c1ccc(C(C)(C)C)cc1 (single isomer, unassigned) [Example 22A] | – | – | 48.1 nM | 15.1 nM
28 | CCOC(=O)C(C)(C)NP(=O)(CO[C@H](C)Cn1cnc2c(N)ncnc21)NC(=O)c1ccc(C(C)(C)C)cc1 (single isomer, unassigned) [Example 22B] | – | – | 15.7 nM | 5.8 nM
29 | CCCOC(=O)C(C)(C)NP(=O)(CO[C@H](C)Cn1cnc2c(N)ncnc21)NC(=O)c1ccc(OC)cc1 (stereo partly drawn) [Example 2B, propyl 2-(((R)—((((R)-1-(6-amino-9H-purin-9-yl)propan-2-yl)oxy)methyl)(4-methoxy-benzamido)phosphoryl)amino)-2-methylpropanoate and propyl 2-(((S)—((((R)-1-(6-amino-9H-purin-9-yl)propan-2-yl)oxy)methyl(4-methoxybenzamido)phosphoryl)amino)-2-methylpropanoate] | 69.8 nM | 27.5 nM | – | –
30 | CCCOC(=O)C(C)(C)NP(=O)(CO[C@H](C)Cn1cnc2c(N)ncnc21)NC(=S)c1ccc(Cl)cc1 (stereo partly drawn) [Example 19, propyl 2-((((((R)-1-(6-amino-9H-purin-9-yl)propan-2-yl)oxy)methyl)(4-chlorophenylthioamido)phosphoryl)amino)-2-methylpropanoate] | 347 nM | 32.1 nM | – | –
31 | CC(C)OC(=O)C(C)(C)NP(=O)(CO[C@H](C)Cn1cnc2c(N)ncnc21)NC(=S)c1ccc(Cl)cc1 (stereo partly drawn) [Example 20, isopropyl 2-((((((R)-1-(6-amino-9H-purin-9-yl)propan-2-yl)oxy)methyl)(4-chlorophenylthioamido)phosphoryl)amino)-2-methylpropanoate] | 494 nM | 118 nM | – | –
